Here are results for 2 compounds from PMC11173618, “C2-Symmetrical Terphenyl Derivatives as Small Molecule Inhibitors of Programmed Cell Death 1/Programmed Death Ligand 1 Protein–Protein Interaction” (Molecules, 2024).

One assay addresses T1, PD-1/PD-L1 complex (Homo sapiens, UniProt Q9NZQ7).
T1 construct: purchased cis-bio
As to the kind of experiment: HTRF assay of PD-1/PD-L1 complex inhibition (cis-bio kit). It counts as binding. The settings on record: 1 h, scouting mode, 5 nM PD-L1, 50 nM PD-1, read-out: HTRF [%] (percentage of dissociated PD-1/PD-L1 complex); for inhibition at 0.5 µM: inhibitor 0.5 µM; for inhibition at 5 µM: inhibitor 5 µM. On the procedure:
All synthesized molecules were tested in the homogeneous time-resolved fluorescence (HTRF) assay to assess their activity as inhibitors of the PD-1/PD-L1 complex (Table 1, Table 2 and Table 3). This evaluation was conducted in scouting modes, employing concentrations of 5 μM and 0.5 μM. Based on the obtained measurements, the IC50 values were estimated for each tested compound.
The certified cis-bio assay kit was used to perform the HTRF assay. Following the standard protocol, the measurement was carried out at a 20 µL final volume with a 5 nM concentration of PD-L1 and a 50 nM concentration of PD-1 in the final formulation. […] The plate was incubated for 1 h and then read on an HTRF-certified Tecan Spark 20M microplate reader. Output data were subjected to background subtraction on negative control (without PD-1) and normalization in correlation to the positive control (without inhibitor) and were then averaged. The resulting data points were then fitted with Hill’s equation to generate IC50 using Mathematica 12. […]
(Time-resolved FRET reads energy transfer from a long-lived donor to a nearby acceptor.)

Assay [1] concerns the target T2, human PD-L1 protein (amino acids 18-134) (Homo sapiens, UniProt Q9NZQ7).
T2 construct: human PD-L1 protein (amino acids 18-134); made in house; host or cells: E. coli BL21 (pET-21b)
The experiment in a line: 1H NMR binding assay. Conditions: ligand/protein 1:1, 0.2 mM PD-L1, 300 K.
Experimental: NMR spectra were recorded in 10 mM Tris, pH 8.0 20 mM NaCl containing 10% (v/v) of D2O added to the samples to provide the lock signal. Water suppression was carried out using the WATERGATE sequence. All the spectra were recorded at 300 K using a Bruker AVANCE 600 MHz spectrometer (Bruker, Billerica, MA, USA) with the cryoplatform.
The spectra were recorded at the ligand/protein ratio of 1:1 unless stated otherwise. The samples were prepared by adding small amounts of a 50 mM ligand stock solution in DMSO to the protein solution (0.20 mL) of PD-L1 fragment at a concentration of 0.2 mM. […] Spectra were visualized using TopSpin 4.0.2.

T1 sequence (Q9NZQ7 19-238 limits assumed, one chain of several): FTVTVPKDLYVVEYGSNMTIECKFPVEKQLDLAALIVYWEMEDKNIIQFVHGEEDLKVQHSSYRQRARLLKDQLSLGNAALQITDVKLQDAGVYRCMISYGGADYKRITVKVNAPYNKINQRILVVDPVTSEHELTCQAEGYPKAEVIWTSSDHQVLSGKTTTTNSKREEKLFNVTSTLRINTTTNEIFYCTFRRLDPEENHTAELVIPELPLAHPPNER
T2 sequence (Q9NZQ7 18-134): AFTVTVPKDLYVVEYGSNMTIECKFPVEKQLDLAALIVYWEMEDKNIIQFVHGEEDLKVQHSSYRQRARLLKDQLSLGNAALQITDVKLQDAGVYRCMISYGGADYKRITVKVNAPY

`COc1cccc(CNCCNC(C)=O)c1OCc1cccc(-c2cccc(-c3cccc(COc4c(CNCCNC(C)=O)cccc4OC)c3)c2C)c1` [Compound 8b, N,N’-(((((((2′-methyl-[1,1′:3′,1′′-terphenyl]-3,3′′-diyl)bis(methylene))bis(oxy))bis(3-methoxy-2,1-phenylene))bis(methylene))bis(azanediyl))bis(ethane-2,1-diyl))diacetamide]: on PD-1/PD-L1 complex, the inhibition at 0.5 µM worked out at 88.9 ± 3.8% and the inhibition at 5 µM stood at 73.6 ± 5.3%. The “Binding to PD-L1 by 1H NMR (broadening of PD-L1 proton signals)” value in assay [1] is “affinity of the test compounds for the PD-L1 protein is confirmed”.

Consider `COc1cccc(CNCCO)c1OCc1cccc(-c2cccc(-c3cccc(COc4c(CNCCO)cccc4OC)c3)c2C)c1` [Compound 8c, 2,2′-((((((2′-methyl-[1,1′:3′,1′′-terphenyl]-3,3′′-diyl)bis(methylene))bis(oxy))bis(3-methoxy-2,1-phenylene))bis(methylene))bis(azanediyl))bis(ethan-1-ol)], for which, on PD-1/PD-L1 complex, the inhibition at 0.5 µM was 104 ± 3.3% and the inhibition at 5 µM was 61.1 ± 4.5%.
